Values quoted from earlier work, collected in patent US20050152989A1, “Method for treating irritable bowel syndrome” (Braintree Laboratories, Inc., priority 2003, published 2005).

How the values were obtained:
[1] = test system: constipation-predominant IBS; details: Case Study 2, patient history before the formulation

Cc1[nH]cnc1CN1CCc2c(c3ccccc3n2C)C1=O [alosetron]
toxicity limiting use (IBS; diarrhea-predominant IBS): severely limited by its toxicity

COc1cc(N)c(Cl)cc1C(=O)NC1CCN(CCCOc2ccc(F)cc2)CC1OC (stereo not drawn) [cisapride]
outcome of earlier treatment regimens tried by the patient [1]: without success

[H]/N=C(/NCCCCC)N/N=C/c1c[nH]c2ccc(OC)cc12 [tegaserod]
patients with significant improvement in IBS symptoms compared with placebo (IBS; constipation-predominant IBS): about one of eight
